Measurements published in patent publication US20090023696A1, “USE OF C3-C10 17ALFA-ESTERS OF 9,11-DEHYDROCORTEXOLONE AS ANTI-GONADOTROPHIC AGENTS” (COSMO BIO-TECHNOLOGIES SRL, priority 2005, published 2009).
Values joined by “and” are separate entries in the source; they are usually repeats but may differ in a detail not shown here. Identical values can stand only once. “Also recorded” adds a separate entry of the source. Marks after values point to notes of the source that are not given here.

Test system: hypersecretion of gonadotrophin in the parabiotic rat
Test: Hypersecretion of gonadotrophin induced by castration in parabiotic rats (ovarian weight)
Type: in vivo, Wistar rats
Details: for Inhibition of ovarian weight (%): subcutaneously into castrated males; for anti-gonadotrophic effect (inhibitory effect on gonadotrophin secretion), in words: overall conclusion from Table 1
Procedure: The anti-gonadotrophic action was evaluated in an animal model by evaluation of the hypersecretion of the gonads induced by castration in parabiotic rats (Shipley E. G., in: Methods in Hormone Research, R. L Dorfman (ed.), vol. 2, pp 179-274. Academic Press, New York and London, 1962). The results of the inhibitory action of […] 17α-butyrate on the gonads are shown below in Table 1. Wistar rats of both sexes with body weights of 50-60 g were used. The males were castrated and, on the next day, were surgically united along the lateral body wall with intact females (parabiosis). In this experimental procedure, the castration of the males induces in them an immediate hypersecretion of gonadotrophin, which, on reaching the female via the parabiotic union, stimulates ovarian growth. […] Progesterone was used as a positive control and was administered by the same procedure, in doses of 0.5 and 2 mg. Additional groups of pairs including intact males/intact females and castrated males/intact females were treated with the vehicle only and used as a control. At the end of the treatment period, the pairs were killed and autopsies performed. The ovaries and uteruses of each female rate were isolated and weighed. The inhibitory action causing hypersecretion of gonadotrophin due to castration was evaluated via the capacity of the tested compound to oppose the increase of weight of the ovaries.

Row | SMILES | Inhibition of ovarian weight (%) (daily dose 1 mg) | Inhibition of ovarian weight (%) (daily dose 5 mg) | anti-gonadotrophic effect (inhibitory effect on gonadotrophin secretion), in words | Inhibition of ovarian weight (%) (daily dose 0.5 mg) | Inhibition of ovarian weight (%) (daily dose 2 mg)
1 | CCCC(=O)O[C@]1(C(=O)CO)CCC2C3CCC4=CC(=O)CCC4(C)C3=CCC21C (stereo partly drawn) [9,11-dehydrocortexolone 17α-butyrate] | 59% and 59^a % | 96% and 96^a % | strong and significant dose-correlated inhibitory effect on gonadotrophin secretion; also recorded: comparable to that shown by comparable doses of progesterone | – | –
2 | CCC(=O)O[C@]1(C(=O)CO)CC[C@H]2[C@@H]3CCC4=CC(=O)CC[C@]4(C)[C@H]3CC[C@@]21C [cortexolone 17α-propionate, reference compound] | 5% | 5% | no anti-gonadotrophic action at all | – | –
3 | CC(=O)[C@H]1CC[C@H]2[C@@H]3CCC4=CC(=O)CC[C@]4(C)[C@H]3CC[C@]12C [progesterone, reference compound] | – | – | – | 38^b % | 66^a %
